In US20210137964A1, “GLYCAN COMPOSITIONS AND METHODS OF USE” (KALEIDO BIOSCIENCES, INC., priority 2016, published 2021):

Experiments:
Assay type in all cases: cell-based
Conditions in all cases: ex vivo 1% w/v fecal slurry from 12 subjects, glycan 0.5% w/v, 37° C., 18 hours, anaerobic
[1] = tested on: Firmicutes, Proteobacteria, and/or Actinobacteria; experiment: Ex vivo fecal slurry assay, 16S rRNA sequencing (Example 11)
Source text: (§1) An ex vivo assay was designed to determine if glycans can be used to modulate a complex community of microorganisms and if the glycans produced consistent effects across communities obtained from multiple (twelve) subjects. Fecal samples and slurries were handled in an anaerobic chamber (AS-580, Anaerobe Systems) featuring a palladium catalyst. Glycans ara100, gal100, glu60man40, glu100, glu50gal50, gal33man33ara33, man75gal25, glu33gal33man34, glu33gal33Ara33, man100, man52glu29gal19 and commercially available glycans lactulose (Alfa Aesar) and FOS (Nutraflora FOS; NOW Foods, Bloomingdale Ill.) were included in the study. The fecal sample donations obtained from 12 subjects were stored at −80° C. To prepare working stocks the fecal samples were transferred into the anaerobic chamber and allowed to thaw.

[2] = tested on: Enterobacteriaceae/Escherichia/Shigella microbes; experiment: Ex vivo fecal slurry assay, 16S rRNA sequencing (Example 17)
Source text: as §1

[3] = tested on: Ruminococcaceae/Ruminococcus microbes; experiment: Ex vivo fecal slurry assay, 16S rRNA sequencing (Example 21)
Source text: as §1

[4] = tested on: Enterococcaceae/Enterococcus and/or Enterobacteriaceae/Escherichia/Shigella microbes; experiment: Ex vivo fecal slurry assay, 16S rRNA sequencing (Example 18)
Source text: as §1

[5] = tested on: Enterococcaceae/Enterococcus and/or Bifidobacteriaceae/Bifidobacterium; experiment: Ex vivo fecal slurry assay, 16S rRNA sequencing (Example 15)
Source text: as §1

[6] = tested on: Actinobacteria and/or Coriobacteriaceae/Gordonibacter; experiment: Ex vivo fecal slurry assay, 16S rRNA sequencing (Example 13)
Source text: as §1

[7] = tested on: Enterobacteriales/Enterobacteriaceae microbes; experiment: Ex vivo fecal slurry assay, 16S rRNA sequencing (Example 19)
Source text: as §1

OC[C@H]1O[C@@H](O[C@@H]2[C@@H](CO)OC(O)(CO)[C@H]2O)[C@H](O)[C@@H](O)[C@H]1O (mixture of isomers) [lactulose]
levels of Firmicutes, Proteobacteria, and/or Actinobacteria [1]: decrease | levels of Enterobacteriaceae/Escherichia/Shigella microbes [2]: decrease | levels of Ruminococcaceae/Ruminococcus microbes [3]: decrease | levels of Enterococcaceae/Enterococcus and/or Enterobacteriaceae/Escherichia/Shigella microbes [4]: decrease | levels Enterococcaceae/Enterococcus and/or Bifidobacteriaceae/Bifidobacterium [5]: increase | levels of Actinobacteria and/or Coriobacteriaceae/Gordonibacter [6]: decrease | levels of Enterobacteriales/Enterobacteriaceae microbes [7]: decrease
